Data from US10208056B2, “Condensed tricyclic compounds as protein kinase inhibitors” (FUNDACIÓN DEL SECTOR PÚBLICO ESTATAL CENTRO NACIONAL DE …, priority 2015, dated 2019).

How the values were obtained:
SW620 cells = assay: Cell cycle assay (propidium iodine, flow cytometry); format: cell-based, human; conditions: SW620, 24 h, increasing concentrations
Procedure: Compounds can be screened for their ability to affect the cell cycle using a propidium iodine assay and analysis by flow cytometry. SW620 are plated at 500000 cells per well in 6-well plates (Solmeglas 13118) in RPMI media (Sigma-Aldrich R6504) supplemented with 10% foetal bovine serum (Sigma-Aldrich F7524), Penicillin/Streptomycin solution diluted 1:100 (Gibco 15070-063), and fungizone (Gibco, 15290-018), and allowed to adhere overnight at 37° C. in 5% CO2. Cells are then treated 24 h hours with compounds at final concentration of 5, 2.5, 1 and 0.5 μM. Cells are collected by trypsinization and centrifugation at 1250 rpm and washed with PBS (Sigma Ref. D8537). Cells are fixated with 70% cold ethanol (Merck Ref 100983)) and kept at 4° C. at least for 12 hours. After centrifugation, cells are washed with PBS and DNA is stained with a solution of 0.2 mg/mL RNAase (Quiagen Ref 1007885) and 0.02 mg/mL propidium iodine (Sigma Ref P4864). After 30 minutes incubation at room temperature in the dark cells are analyzed by FACSCalibur™ (BD biosciences) and Flowjo software.

[1] = system: SW620 human colon cancer xenografts; assay: In vivo target modulation studies (P-STAT1 S727 in tumors); parameters: species or system mice; conditions: single oral dose 5 mg/kg; tumors sampled 1, 4, 8 and 24 h
Procedure: The in vivo potency of the compounds was measured determining target modulation in human colon xenografts. Eight weeks old female athymic nude mice (Harlan Sprague Dawley Inc) are subcutaneously grafted with 10*10^6 SW620 human colon cancer cells. When the tumors reach a size of 200-400 mm^3 the mice are dosed orally with 5 mg/kg of Example 43 or vehicle. Tumors are excised 1, 4, 8 and 24 h after administration (n=3 mice per time point) and are processed for western blot and for HPLC/MS/MS in order to determine the concentration for Example 43 in the tumor. […] The supernatants are removed and protein concentration is determined by Bradford method (Bio-Rad Protein Assay). […] 30-60 μg of total proteins extracts are analyzed by western blot for STAT1P/STAT1 modulation as has been described in the cellular CDK8 inhibition assay. […] Specific solid phase extraction methods as well as LC-MS/MS analysis and quantification methods were developed, reaching LLOQs of 1 ng/ml. […]

HCT116 = assay: Combination assay, HCT116; format: cell-based
Procedure: (§1) The combination index (CI) of combinations of certain example compounds and various chemotherapeutic agents in the CellTitetI-Glo® in vitro cell proliferation assays may be tested. A combination index score is calculated by the Chou and Talalay method (CalcuSyn software, Biosoft). The strength of synergy is scored using the ranking system Chou and Talalay: CI less than 0.8 indicates synergy, CI between 0.8 and 1.2 indicates additivity and CI greater than 1.2 indicates antagonism.
(§2) The EC50 values of representative combinations are also calculated. The individually measured EC50 values of the chemotherapeutic agent and the example compounds are compared to the EC50 value of the combination. The cell lines are characterised by tumor type. Combination assays are performed as described in: “Pim 1 kinase inhibitor ETP-45299 suppresses cellular proliferation and synergizes with PI3K inhibition”. Blanco-Aparicio, Carmen; Collazo, Ana Maria Garcia; Oyarzabal, Julen; Leal, Juan F.; Albaran, Maria Isabel; Lima, Francisco Ramos; Pequeno, Belen; Ajenjo, Nuria; Becerra, Mercedes; Alfonso, Patricia; Reymundo, Maria Isabel; Palacios, Irene; Mateos, Genoveva; Quinones, Helena; Corrionero, Ana; Carnero, Amancio; Pevarello, Paolo; Lopez, Ana Rodriguez; Fominaya, Jesus; Pastor, Joaquin; Bischoff, James R. Cancer Letters (Shannon, Ireland) 2011, 300(2), 145-153

MDAMB231 = assay: Combination assay, MDAMB231; format: cell-based
Procedure: as §1, §2

DU145 = assay: Combination assay, DU145; format: cell-based
Procedure: as §1
The EC50 values of representative combinations are also calculated. The individually measured EC50 values of the chemotherapeutic agent and the example compounds are compared to the EC50 value of the combination. The cell lines are characterised by tumor type. […] Blanco-Aparicio, Carmen; Collazo, Ana Maria Garcia; Oyarzabal, Julen; Leal, Juan F.; Albaran, Maria Isabel; Lima, Francisco Ramos; Pequeno, Belen; Ajenjo, Nuria; Becerra, Mercedes; Alfonso, Patricia; Reymundo, Maria Isabel; Palacios, Irene; Mateos, Genoveva; Quinones, Helena; Corrionero, Ana; Carnero, Amancio; Pevarello, Paolo; Lopez, Ana Rodriguez; Fominaya, Jesus; Pastor, Joaquin; Bischoff, James R. Cancer Letters (Shannon, Ireland) 2011, 300(2), 145-153

[2] = HCT116, combination with Alisertib
[3] = HCT116, combination with Crizotinib
[4] = MDAMB231, combination with Elesclomol
[5] = DU145, combination with Alisertib
[6] = DU145, combination with Crizotinib

GI50 (HCT116; Homo sapiens, HCT-116, HCT116, example compound alone, read-out: CDK8 inh GI50): 5 µM | GI50 (MDAMB231; Homo sapiens, MDA-MB-231, MDAMB231, example compound alone, read-out: CDK8 inh GI50): 5 µM | GI50 (DU145; Homo sapiens, DU-145, DU145, example compound alone, read-out: CDK8 inh GI50): 5 µM
Structure (SMILES): CCn1c(C(N)=O)cc2c1-c1ccncc1OC2(C)C [Example 43]
effect on cell cycle (SW620 cells): induced G2M arrest and apoptosis | target modulation in vivo, P-STAT1 (S727) [1]: Clear target modulation is observed at 1 and 4 h | Combination index (CI) (HCT116; [2]): 0.64 | Synergy (HCT116; [2]): ++ (0.3 < CI < 0.7 (++)) | Combination index (CI) (HCT116; [3]): 0.58 | Synergy (HCT116; [3]): ++ (0.3 < CI < 0.7 (++)) | Combination index (CI) (HCT116; HCT116, combination with Taxol): 0.63 | Synergy (HCT116; HCT116, combination with Taxol): ++ (0.3 < CI < 0.7 (++)) | Combination index (CI) (MDAMB231; [4]): 0.59 | Synergy (MDAMB231; [4]): ++ (0.3 < CI < 0.7 (++)) | Combination index (CI) (DU145; [5]): 0.65 | Synergy (DU145; [5]): ++ (0.3 < CI < 0.7 (++)) | Combination index (CI) (DU145; [6]): 0.44 | Synergy (DU145; [6]): ++ (0.3 < CI < 0.7 (++)) | Combination index (CI) (DU145; DU145, combination with Taxol): 0.21 | Synergy (DU145; DU145, combination with Taxol): +++ (0.1 < CI < 0.3 (+++))
